Measured values as given in publication PMC8236452, “Pharmacokinetics and safety of rucaparib in patients with advanced solid tumors and hepatic impairment” (Cancer Chemotherapy and Pharmacology, 2021).
Where two headings read alike, the source gives them in different places.

Legend:
[1] = Plasma pharmacokinetics after a single oral dose of rucaparib 600 mg in patients with advanced solid tumors, by hepatic function group; conditions: for Vd/F / half-life / Tmax: human, plasma, po, 600 mg, single oral rucaparib 600 mg; for Vd/F: Vz/F
Method: In Part 1, patients received a single oral dose of rucaparib 600 mg on day 1; PK samples were collected and safety monitored through day 7.
Sample collection, processing, and shipping were conducted according to standardized protocols shared across study sites. Plasma samples were collected for PK analysis at the predose assessment and at 1, 2, 3, 4, 8, 12, 24, 48, 72, 96, 120, and 144 h postdose. A predose urine sample was collected less than 12 h prior to study drug administration. Total urine was collected 0–12 h and 12–24 h postdose. Total (bound and unbound) concentrations of rucaparib and its metabolite M324 in plasma and urine samples were determined by Q Squared Solutions BioSciences (Ithaca, NY, USA) using validated liquid chromatography mass spectrometry/mass spectrometry methods. Stable deuterium-labeled analytes were used as internal standards. The assay calibration ranges for plasma samples were 5–10,000 ng/mL for rucaparib and 1–1000 ng/mL for M324 with lower limits of quantification (LLOQ) of 5.00 and 1.00 ng/mL, respectively. For urine samples, the calibration range was 500–50,000 ng/mL for both rucaparib and M324, with a LLOQ of 500 ng/mL for both analytes. The precision was within 9.3% CV, and the accuracy was within ± 6.2%.
PK parameters were estimated from the concentration–time profiles. Actual elapsed time after dosing was used to estimate plasma PK parameters based on noncompartmental methods using Phoenix® WinNonlin® version 8.1.0 (Certara USA, Inc., Princeton, NJ, USA). […] Exploratory PK parameters for M324 calculated based on plasma and urine concentration-time data were Cmax, AUC0–last, AUC0–inf, t1/2, tmax, Ae0–24, and CLR, as data allowed.
PK parameters were calculated by noncompartmental analysis, analyzed using descriptive statistics, and presented by hepatic functional status. Analysis of variance (ANOVA) was used to compare PK parameters (e.g., Cmax, AUC0–last, and AUC0–inf) between the normal hepatic function group and the moderate hepatic impairment group per NCI-ODWG criteria. PK values were log-transformed before analysis. Baseline covariates (e.g., creatinine clearance [CLcr], sex, age, BMI, and ECOG PS) were tested for any significant effect (P value < 0.05). Geometric least-squares means were used to calculate the ratios of the PK parameters in the hepatic impairment group to those in the control group, along with 90% confidence intervals (CIs). The Wilcoxon rank-sum test was used to compare tmax values between the two groups, and estimates of the median differences were determined, along with 90% CIs. In addition, the relationships between log-transformed PK parameters (AUC0–last, AUC0–inf, Cmax) for rucaparib and M324 and hepatic function parameters (bilirubin and aspartate aminotransferase [AST]) relevant to the classification of hepatic impairment according to NCI-ODWG were explored by a linear regression approach.

[2] = Urine pharmacokinetics (Ae0–24, CLR) after a single oral dose of rucaparib 600 mg in patients with advanced solid tumors; assay type: in vivo, human; conditions: urine, single oral rucaparib 600 mg; for CL renal: human, po, 600 mg
Text: Stable deuterium-labeled analytes were used as internal standards.
PK parameters were estimated from the concentration–time profiles.

[3] = cited from earlier work
[4] = Median (min–max), Child–Pugh mild hepatic impairment
[5] = Median (min–max), Child–Pugh moderate hepatic impairment
[6] = Median (min–max), Child–Pugh severe hepatic impairment
[7] = Median (min–max), NCI-ODWG moderate hepatic impairment
[8] = Median (min–max), NCI-ODWG normal hepatic function
[9] = linear regression of log-transformed PK parameter on hepatic function parameter (NCI-ODWG)
[10] = Child–Pugh mild hepatic impairment
[11] = Child–Pugh moderate hepatic impairment
[12] = Child–Pugh severe hepatic impairment
[13] = NCI-ODWG moderate hepatic impairment
[14] = NCI-ODWG normal hepatic function
[15] = estimated with 36% absolute oral bioavailability

Compound `CNCc1ccc(-c2[nH]c3cc(F)cc4c3c2CCNC4=O)cc1` [rucaparib] has a Vd/F ([1]; GM, Child–Pugh mild hepatic impairment) of 2320 L, a Vd/F ([1]; GM, Child–Pugh moderate hepatic impairment) of 1460 L and a Vd/F ([1]; GM, Child–Pugh severe hepatic impairment) of 1530 L. For the same compound, the Vd/F ([1]; GM, NCI-ODWG moderate hepatic impairment) was 1960 L, the Vd/F ([1]; GM, NCI-ODWG normal hepatic function) was 1650 L and the Vd/F ([1]; Mean (SD), Child–Pugh mild hepatic impairment) was 3340 L. The Vd/F ([1]; Mean (SD), Child–Pugh moderate hepatic impairment) was 1660 L, the Vd/F ([1]; Mean (SD), Child–Pugh severe hepatic impairment) was 2700 L and the Vd/F ([1]; Mean (SD), NCI-ODWG moderate hepatic impairment) was 2840 L. It also gave a Vd/F ([1]; Mean (SD), NCI-ODWG normal hepatic function) of 2220 L, a Vd/F [1, 4] of 2130 L and a Vd/F [1, 5] of 1280 L. For the same compound, the Vd/F [1, 6] was 2700 L, the Vd/F [1, 7] was 2190 L and the Vd/F [1, 8] was 1270 L. The half-life ([1]; t1/2, GM, Child–Pugh mild hepatic impairment) was 25.2 h, the half-life ([1]; t1/2, GM, Child–Pugh moderate hepatic impairment) was 42.6 h and the half-life ([1]; t1/2, GM, Child–Pugh severe hepatic impairment) was 47.8 h. For the same compound, the half-life ([1]; t1/2, GM, NCI-ODWG moderate hepatic impairment) was 45 h, the half-life ([1]; t1/2, GM, NCI-ODWG normal hepatic function) was 26.1 h and the half-life ([1]; t1/2, Mean (SD), Child–Pugh mild hepatic impairment) was 27.5 h. It also gave a half-life ([1]; t1/2, Mean (SD), Child–Pugh moderate hepatic impairment) of 44.8 h, a half-life ([1]; t1/2, Mean (SD), Child–Pugh severe hepatic impairment) of 47.8 h and a half-life ([1]; t1/2, Mean (SD), NCI-ODWG moderate hepatic impairment) of 46.7 h. For the same compound, the half-life ([1]; t1/2, Mean (SD), NCI-ODWG normal hepatic function) was 28.5 h, the half-life ([1]; t1/2, Median (min–max), Child–Pugh mild hepatic impairment) was 26.6 h and the half-life ([1]; t1/2, Median (min–max), Child–Pugh moderate hepatic impairment) was 49.9 h. For the same compound, the half-life ([1]; t1/2, Median (min–max), Child–Pugh severe hepatic impairment) was 47.8 h, the half-life ([1]; t1/2, Median (min–max), NCI-ODWG moderate hepatic impairment) was 49.3 h and the half-life ([1]; t1/2, Median (min–max), NCI-ODWG normal hepatic function) was 26.3 h. For the same compound, the Tmax [1, 4] was 3.98 h, the Tmax [1, 5] was 3.95 h and the Tmax [1, 6] was 4.49 h. The Tmax [1, 7] was 3.96 h, the Tmax [1, 8] was 3.97 h and the “Slope estimate (90% CI), AUC0-inf vs AST” value [1, 9] was 0.001 (–0.002 to 0.004). For the same compound, the “Slope estimate (90% CI), AUC0-inf vs Bilirubin” value [1, 9] was 0.003 (–0.014 to 0.020), the “Slope estimate (90% CI), AUC0-last vs AST” value [1, 9] was 0.001 (–0.002 to 0.004) and the “Slope estimate (90% CI), AUC0-last vs Bilirubin” value [1, 9] was 0.002 (–0.015 to 0.019). The “Slope estimate (90% CI), Cmax vs AST” value [1, 9] was 0 (–0.002 to 0.001), the “Slope estimate (90% CI), Cmax vs Bilirubin” value [1, 9] was “–0.002 (–0.011 to 0.007)” and the CL renal ([2]; Child–Pugh mild hepatic impairment, read-out: CLR, GM) was 55.2 mL/min. For the same compound, the CL renal ([2]; Child–Pugh mild hepatic impairment, read-out: CLR, Mean (SD)) was 56.7 mL/min, the CL renal ([2]; Child–Pugh mild hepatic impairment, read-out: CLR, Median (min–max)) was 59.5 mL/min and the CL renal ([2]; Child–Pugh moderate hepatic impairment, read-out: CLR, GM) was 48.8 mL/min. For the same compound, the CL renal ([2]; Child–Pugh moderate hepatic impairment, read-out: CLR, Mean (SD)) was 52.3 mL/min, the CL renal ([2]; Child–Pugh moderate hepatic impairment, read-out: CLR, Median (min–max)) was 53.7 mL/min and the CL renal ([2]; Child–Pugh severe hepatic impairment, read-out: CLR, GM) was 16 mL/min. For the same compound, the CL renal ([2]; Child–Pugh severe hepatic impairment, read-out: CLR, Mean (SD)) was 20.1 mL/min, the CL renal ([2]; Child–Pugh severe hepatic impairment, read-out: CLR, Median (min–max)) was 20.1 mL/min and the CL renal ([2]; NCI-ODWG moderate hepatic impairment, read-out: CLR, GM) was 36.9 mL/min. It also gave a CL renal ([2]; NCI-ODWG moderate hepatic impairment, read-out: CLR, Mean (SD)) of 46.2 mL/min, a CL renal ([2]; NCI-ODWG moderate hepatic impairment, read-out: CLR, Median (min–max)) of 41.1 mL/min and a CL renal ([2]; NCI-ODWG normal hepatic function, read-out: CLR, GM) of 52.5 mL/min. The CL renal ([2]; NCI-ODWG normal hepatic function, read-out: CLR, Mean (SD)) was 53.5 mL/min, the CL renal ([2]; NCI-ODWG normal hepatic function, read-out: CLR, Median (min–max)) was 56.1 mL/min and the “Ae0–24, GM” value [2, 10] was 17.6 mg. The “Ae0–24, Mean (SD)” value [2, 10] was 20.7 (11.9) mg, the “Ae0–24, Median (min–max)” value [2, 10] was 21.4 (7.69–40.6) mg and the “Ae0–24, GM” value [2, 11] was 28.2 mg. The “Ae0–24, Mean (SD)” value [2, 11] was 29.8 (9.93) mg, the “Ae0–24, Median (min–max)” value [2, 11] was 33.2 (16.7–41.5) mg and the “Ae0–24, GM” value [2, 12] was 8.49 mg. For the same compound, the “Ae0–24, Mean (SD)” value [2, 12] was 8.89 (3.72) mg, the “Ae0–24, Median (min–max)” value [2, 12] was 8.89 (6.26–11.5) mg and the “Ae0–24, GM” value [2, 13] was 16.0 mg. The “Ae0–24, Mean (SD)” value [2, 13] was 19.8 (13.7) mg, the “Ae0–24, Median (min–max)” value [2, 13] was 16.7 (6.26–41.5) mg and the “Ae0–24, GM” value [2, 14] was 22.8 mg. The “Ae0–24, Mean (SD)” value [2, 14] was 25.4 (10.9) mg, the “Ae0–24, Median (min–max)” value [2, 14] was 27.0 (7.69–40.6) mg and the “hepatic elimination route, share of total clearance” value [3, 15] was ~ 70%. For the same compound, the “renal elimination route, share of total clearance” value [3, 15] was ~ 30% and the “mean terminal half-life (t1/2)” value ([3]; single oral dose of [14C]-rucaparib 600 mg) was 25.9 h.
